Data taken from ChEMBL document CHEMBL1201862, “PubChem BioAssay data set” (2004).
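Following 48 hours of exposure in 96-well plates, responses at five concentrations were used to interpolate endpoints linearly. GI50: concentration for 50% inhibition of growth.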 Active and inactive are the calls of the source. No stated cut-off is given here; in the data, active = GI50 up to about 1.1 µM and inactive = higher.

What was measured:
Experiment in all cases: inhibition of tumour cell growth, NCI panel, 48 h
Malme-3M = test system: Malme-3M
SNB-75 = test system: SNB-75
SR = test system: SR
IGROV-1 = test system: IGROV-1
NCI-H522 = test system: NCI-H522
OVCAR-3 = test system: OVCAR-3
HL-60 = test system: HL-60
TK-10 = test system: TK-10
NCI-H460 = test system: NCI-H460
A498 = test system: A498
RPMI-8226 = test system: RPMI-8226
EKVX = test system: EKVX
CCRF-CEM = test system: CCRF-CEM
LOX IMVI = test system: LOX IMVI
KM12 = test system: KM12
MDA-MB-231 = test system: MDA-MB-231
SF-295 = test system: SF-295
K562 = test system: K562
UACC-257 = test system: UACC-257
SW-620 = test system: SW-620
SNB-19 = test system: SNB-19
HCC 2998 = test system: HCC 2998
SF-268 = test system: SF-268
HOP-62 = test system: HOP-62
MDA-N = test system: MDA-N
MDA-MB-435 = test system: MDA-MB-435
HCT-15 = test system: HCT-15
SF-539 = test system: SF-539
HOP-92 = test system: HOP-92
DU-145 = test system: DU-145
OVCAR-8 = test system: OVCAR-8
PC-3 = test system: PC-3
U-251 = test system: U-251
786-0 = test system: 786-0
OVCAR-5 = test system: OVCAR-5
SK-MEL-5 = test system: SK-MEL-5
ACHN = test system: ACHN
A549 = test system: A549
HT-29 = test system: HT-29
RXF 393 = test system: RXF 393
NCI/ADR-RES = test system: NCI/ADR-RES
Hs-578T = test system: Hs-578T
OVCAR-4 = test system: OVCAR-4
SK-MEL-28 = test system: SK-MEL-28
NCI-H23 = test system: NCI-H23
SN12C = test system: SN12C
NCI-H226 = test system: NCI-H226
HCT-116 = test system: HCT-116
COLO 205 = test system: COLO 205
MOLT-4 = test system: MOLT-4
M14 = test system: M14
UACC-62 = test system: UACC-62
SK-MEL-2 = test system: SK-MEL-2
MCF7 = test system: MCF7
CAKI-1 = test system: CAKI-1
UO-31 = test system: UO-31
SK-OV-3 = test system: SK-OV-3

Cn1nc2n(c1=O)CCCN2
GI50 (Malme-3M): > 100 µM (inactive) | GI50 (SNB-75): > 100 µM (inactive) | GI50 (SR): > 100 µM (inactive) | GI50 (IGROV-1): > 100 µM (inactive) | GI50 (NCI-H522): > 100 µM (inactive) | GI50 (OVCAR-3): > 100 µM (inactive) | GI50 (HL-60): > 100 µM (inactive) | GI50 (TK-10): > 100 µM (inactive) | GI50 (NCI-H460): > 100 µM (inactive) | GI50 (A498): > 100 µM (inactive) | GI50 (RPMI-8226): > 100 µM (inactive) | GI50 (EKVX): > 100 µM (inactive) | GI50 (CCRF-CEM): > 100 µM (inactive) | GI50 (LOX IMVI): > 100 µM (inactive) | GI50 (KM12): > 100 µM (inactive) | GI50 (MDA-MB-231): > 100 µM (inactive) | GI50 (SF-295): > 100 µM (inactive) | GI50 (K562): > 100 µM (inactive) | GI50 (UACC-257): > 100 µM (inactive) | GI50 (SW-620): > 100 µM (inactive) | GI50 (SNB-19): > 100 µM (inactive) | GI50 (HCC 2998): > 100 µM (inactive) | GI50 (SF-268): > 100 µM (inactive) | GI50 (HOP-62): > 100 µM (inactive) | GI50 (MDA-N): > 100 µM (inactive) | GI50 (MDA-MB-435): > 100 µM (inactive) | GI50 (HCT-15): > 100 µM | GI50 (SF-539): > 100 µM (inactive) | GI50 (HOP-92): > 100 µM (inactive) | GI50 (DU-145): > 100 µM (inactive) | GI50 (OVCAR-8): > 100 µM (inactive) | GI50 (PC-3): > 100 µM (inactive) | GI50 (U-251): > 100 µM (inactive) | GI50 (786-0): > 100 µM (inactive) | GI50 (OVCAR-5): > 100 µM (inactive) | GI50 (SK-MEL-5): > 100 µM (inactive) | GI50 (ACHN): > 100 µM (inactive) | GI50 (A549): > 100 µM (inactive) | GI50 (HT-29): > 100 µM (inactive) | GI50 (RXF 393): > 100 µM (inactive) | GI50 (NCI/ADR-RES): > 100 µM (inactive) | GI50 (Hs-578T): > 100 µM (inactive) | GI50 (OVCAR-4): > 100 µM (inactive) | GI50 (SK-MEL-28): > 100 µM (inactive) | GI50 (NCI-H23): > 100 µM (inactive) | GI50 (SN12C): > 100 µM (inactive) | GI50 (NCI-H226): > 100 µM (inactive) | GI50 (HCT-116): > 100 µM (inactive) | GI50 (COLO 205): > 100 µM (inactive)

O=CC(O)C(O)C(O)C(O)COP(=O)(O)Cc1ccccc1 (configuration not stated)
GI50 (Malme-3M): > 10 µM (inactive) | GI50 (MOLT-4): > 10 µM (inactive) | GI50 (IGROV-1): > 10 µM (inactive) | GI50 (HL-60): > 10 µM (inactive) | GI50 (CCRF-CEM): > 10 µM (inactive) | GI50 (MDA-MB-435): > 10 µM (inactive) | GI50 (M14): > 10 µM (inactive) | GI50 (UACC-62): > 10 µM (inactive) | GI50 (COLO 205): > 10 µM (inactive)

Cc1ncc([N+](=O)[O-])n1CCNCCCn1ccnc1[N+](=O)[O-]
GI50 (Malme-3M): > 100 µM (inactive) | GI50 (MOLT-4): > 100 µM (inactive) | GI50 (SNB-75): > 100 µM (inactive) | GI50 (SR): > 100 µM (inactive) | GI50 (NCI-H522): > 100 µM (inactive) | GI50 (OVCAR-3): > 100 µM (inactive) | GI50 (HL-60): > 100 µM (inactive) | GI50 (SK-MEL-2): > 100 µM (inactive) | GI50 (TK-10): 70.3 µM (inactive) | GI50 (NCI-H460): > 100 µM (inactive) | GI50 (RPMI-8226): > 100 µM (inactive) | GI50 (EKVX): > 10 µM (inactive) | GI50 (CCRF-CEM): > 100 µM (inactive) | GI50 (KM12): > 100 µM (inactive) | GI50 (SF-295): > 100 µM (inactive) | GI50 (K562): > 100 µM (inactive) | GI50 (MCF7): > 100 µM (inactive) | GI50 (UACC-257): > 100 µM (inactive) | GI50 (SW-620): > 100 µM (inactive) | GI50 (HCC 2998): > 100 µM (inactive) | GI50 (SF-268): > 100 µM (inactive) | GI50 (HOP-62): > 100 µM (inactive) | GI50 (HCT-15): > 100 µM | GI50 (SF-539): > 100 µM (inactive) | GI50 (OVCAR-8): > 100 µM (inactive) | GI50 (PC-3): > 100 µM (inactive) | GI50 (U-251): > 100 µM (inactive) | GI50 (786-0): > 100 µM (inactive) | GI50 (OVCAR-5): 75.3 µM (inactive) | GI50 (SK-MEL-5): > 100 µM (inactive) | GI50 (A549): > 100 µM (inactive) | GI50 (HT-29): > 100 µM (inactive) | GI50 (Hs-578T): > 100 µM (inactive) | GI50 (SK-MEL-28): > 100 µM (inactive) | GI50 (NCI-H23): > 100 µM (inactive) | GI50 (SN12C): > 100 µM (inactive) | GI50 (NCI-H226): > 100 µM (inactive) | GI50 (HCT-116): > 100 µM (inactive)

O=c1[nH]c(=O)n(COCc2ccccc2)c2ccc(Br)cc12
GI50 (MOLT-4): > 100 µM (inactive) | GI50 (SNB-75): 43.4 µM (inactive) | GI50 (SR): > 100 µM (inactive) | GI50 (IGROV-1): > 100 µM (inactive) | GI50 (OVCAR-3): 85.3 µM (inactive) | GI50 (HL-60): > 100 µM (inactive) | GI50 (SK-MEL-2): > 100 µM (inactive) | GI50 (TK-10): > 100 µM (inactive) | GI50 (NCI-H460): 89.5 µM (inactive) | GI50 (A498): > 100 µM (inactive) | GI50 (EKVX): 96.8 µM (inactive) | GI50 (CCRF-CEM): > 100 µM (inactive) | GI50 (CAKI-1): > 100 µM (inactive) | GI50 (LOX IMVI): > 100 µM (inactive) | GI50 (KM12): > 100 µM (inactive) | GI50 (MDA-MB-231): > 100 µM (inactive) | GI50 (SF-295): 87.7 µM (inactive) | GI50 (K562): > 100 µM (inactive) | GI50 (MCF7): > 100 µM (inactive) | GI50 (UACC-257): > 100 µM (inactive) | GI50 (SW-620): > 100 µM (inactive) | GI50 (SNB-19): 64.3 µM (inactive) | GI50 (UO-31): > 100 µM (inactive) | GI50 (MDA-N): > 100 µM (inactive) | GI50 (MDA-MB-435): > 100 µM (inactive) | GI50 (SK-OV-3): > 100 µM (inactive) | GI50 (HCT-15): 71.4 µM | GI50 (SF-539): > 100 µM (inactive) | GI50 (HOP-92): > 100 µM (inactive) | GI50 (DU-145): > 100 µM (inactive) | GI50 (OVCAR-8): 90.8 µM (inactive) | GI50 (U-251): > 100 µM (inactive) | GI50 (786-0): > 100 µM (inactive) | GI50 (OVCAR-5): > 100 µM (inactive) | GI50 (SK-MEL-5): 99.3 µM (inactive) | GI50 (ACHN): 27.5 µM (inactive) | GI50 (M14): > 100 µM (inactive) | GI50 (A549): > 100 µM (inactive) | GI50 (HT-29): > 100 µM (inactive) | GI50 (RXF 393): > 100 µM (inactive) | GI50 (UACC-62): > 100 µM (inactive) | GI50 (NCI/ADR-RES): 37 µM (inactive) | GI50 (OVCAR-4): 60.8 µM (inactive) | GI50 (SK-MEL-28): > 100 µM (inactive) | GI50 (SN12C): > 100 µM (inactive) | GI50 (NCI-H226): 36.3 µM (inactive) | GI50 (HCT-116): > 100 µM (inactive) | GI50 (COLO 205): > 100 µM (inactive)

O=c1c2ccccc2nc2n1CCc1c-2[nH]c2ccc(Br)cc12
GI50 (Malme-3M): > 100 µM (inactive) | GI50 (MOLT-4): > 100 µM (inactive) | GI50 (SR): > 100 µM (inactive) | GI50 (IGROV-1): > 100 µM (inactive) | GI50 (OVCAR-3): > 100 µM (inactive) | GI50 (NCI-H460): > 100 µM (inactive) | GI50 (A498): > 100 µM (inactive) | GI50 (RPMI-8226): > 100 µM (inactive) | GI50 (EKVX): > 100 µM (inactive) | GI50 (CCRF-CEM): > 100 µM (inactive) | GI50 (LOX IMVI): > 100 µM (inactive) | GI50 (SF-295): 8.61 µM (inactive) | GI50 (K562): > 100 µM (inactive) | GI50 (UACC-257): > 100 µM (inactive) | GI50 (SW-620): 59 µM (inactive) | GI50 (SNB-19): > 100 µM (inactive) | GI50 (HOP-62): 16.3 µM (inactive) | GI50 (HOP-92): 91.2 µM (inactive) | GI50 (DU-145): > 100 µM (inactive) | GI50 (OVCAR-8): 11.1 µM (inactive) | GI50 (786-0): 31.8 µM (inactive) | GI50 (OVCAR-5): > 100 µM (inactive) | GI50 (SK-MEL-5): 46 µM (inactive) | GI50 (M14): > 100 µM (inactive) | GI50 (A549): 43.8 µM (inactive) | GI50 (HT-29): 45.5 µM (inactive) | GI50 (NCI/ADR-RES): > 100 µM (inactive) | GI50 (Hs-578T): > 100 µM (inactive) | GI50 (OVCAR-4): 6.43 µM (inactive) | GI50 (SK-MEL-28): > 100 µM (inactive) | GI50 (NCI-H23): > 100 µM (inactive) | GI50 (NCI-H226): > 100 µM (inactive) | GI50 (HCT-116): 48.9 µM (inactive)
